Measurements published in US8211883B2, “Topical delivery of phthalocyanines” (priority 2004, dated 2012).

Assays:
[1] = system: Chinese hamster V79-379 lung fibroblasts; assay: Clonogenic cell survival of V79 cells after photodynamic treatment; format: cell-based; details: for LD 90 (light dosage that kills 90% of cells): 18 hours, 675 nm red light; for CF10(AIPcCI)/CF10 (Pc): CF10 = product of intracellular concentration and fluence reducing survival to 10%; for F10(AIPcCI)/F10 (Pc): F10 = fluence reducing cell survival to 10%
Method in brief: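 V79 cells exposed to 0.5 or 1.0 μM phthalocyanine, then irradiated about 18 h later with increasing fluences of broad-band red light (600 nm high-pass filter). Survival scored as colonies of ≥50 cells. F10 taken from survival curves; CF10 from survival against intracellular concentration × fluence; 1 μM AlPcCl run as reference.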

[2] = system: Mouse lymphoma L5178y-R cells; assay: Clonogenic cell survival of PDT-treated LY-R cells; format: cell-based; details: 0.5 μM; for activity relative to PcXII: from LD50/LD90 fluences
Experimental: Mouse lymphoma L5178y-R (hereinafter also referred to as “LY-R”) cells were grown in suspension culture as described in Ramakrishnan N., Oleinick, N. L. Clay, M. E., Homg, M. F., Antunez, A. R., and Evans H. H., Photochem. Photobiol. 50, 373-378, 1989 and Agarwal, M. L., Clay, M. E., Harvey, E. J., Evans, H. H., Antunez, A. R., and Oleinick, N. L., Cancer Res., 51, 5993-5996, 1991.
The cells were used while in exponential growth. Stock solutions of either 0.5 or 1 mM of PcIV, PcXII, PcX, PcXVIII were prepared in dimethylformamide unless otherwise indicated and added to the 10 mL medium at a rate of 1 μL per mL. After allowing 18 hours for uptake of the phthalocyanine into the cells, the flasks containing the cultures were placed on a glass exposure tray above a 500-W tungsten-halogen lamp. The exposure tray was fitted with a 600-nm high-pass filter. Flasks were exposed to various fluences of red light (up to 30 kJ/m^2) at a fluence rate of approximately 74 W/m^2). After irradiation, the cells were collected by centrifugation.
For measurement of clonogenic cell survival, aliquots were plated in medium containing soft agar as described in Ramakrishnan N., Oleinick, N. L. Clay, M. E., Homg, M. F., Antunez, A. R., and Evans H. H., Photochem. Photobiol. 50, 373-378, 1989. The aliquots were plated in sufficient numbers to produce 50-200 colonies. The dishes were kept in an incubator at 37° C. in an atmosphere of 5% CO2 and 95% air for 10-14 days to allow viable cells to form colonies. Colonies were counted by eye. Controls treated with the phthalocyanine alone had plating efficiencies of about […]. The plating efficiencies of the treated cells are normalized to the plating efficiencies of control cells in each experiment. For measurement of the induction of apoptosis, DNA was isolated from the treated and control cells 2 hours after photodynamic therapy, subjected to electrophoresis on 1.5% agarose, stained with ethidium bromide, and visualized by UV transillumination, as described in Agarwal et al. The results are shown in Tables 4, 5 and 6 and in FIG. 3.

[3] = system: L5178Y cells; assay: Induction of apoptosis (DNA ladder) in L5178Y cells after PDT; format: cell-based, Mouse; details: for C × F Ld90, Minimum Demonstrated Condition to Induce Apoptosis: product of concentration and fluence
Experimental: The aliquots were plated in sufficient numbers to produce 50-200 colonies. The dishes were kept in an incubator at 37° C. in an atmosphere of 5% CO2 and 95% air for 10-14 days to allow viable cells to form colonies. Colonies were counted by eye. […] The plating efficiencies of the treated cells are normalized to the plating efficiencies of control cells in each experiment.
Cells were treated with various concentrations of the compounds listed in the table and various light fluences. DNA gels were prepared and examined for the characteristic “ladder” pattern of DNA fragments. For each Pc, the minimum total PDT dose tested (calculated as the product of the minimum phthalocyanine concentration and the minimum fluence) which produced visible DNA fragments is recorded. […] PcXVIII was also added at 0.5 and 1.0 μM.

[4] = 0.5 μM, VII# preplated data only, XXI* not totally soluble at 0.5 mM

CN(C)CCC[Si](C)(C)O[Si]1(O)n2c3c4ccccc4c2N=C2N=C(N=c4c5ccccc5c(n41)=NC1=NC(=N3)c3ccccc31)c1ccccc12 (centres unmarked) [Compound IV, HOSiPcOSi(CH3)2(CH2)3N(CH3)2]
LD 90 (light dosage that kills 90% of cells) [1, 4]: 4 kj/m^2
CF10(AIPcCI)/CF10 (Pc) ([1]; 0.5 μM): 3.9
F10(AIPcCI)/F10 (Pc) ([1]; 0.5 μM): 1.85
CF10(AIPcCI)/CF10 (Pc) ([1]; 1.0 μM): 3.5
F10(AIPcCI)/F10 (Pc) ([1]; 1.0 μM): 4.25
Ld50 (fluence that reduces cell survival to 50%) [2]: 1.38 kJ/m^2
Ld90 (fluence that reduces cell survival to 10%) [2]: 2.15 kJ/m^2
activity relative to PcXII [2]: about 80%
normalized plating efficiency, AVG. ([2]; light dose 0 kJ/m^2): 100
normalized plating efficiency, AVG. ([2]; light dose 1 kJ/m^2): 80.9
normalized plating efficiency, AVG. ([2]; light dose 2 kJ/m^2): 19.7
normalized plating efficiency, AVG. ([2]; light dose 2.5 kJ/m^2): 0.82
normalized plating efficiency, AVG. ([2]; light dose 3 kJ/m^2): 0.16
normalized plating efficiency, AVG. ([2]; light dose 5 kJ/m^2): 0.014
Fluence, Minimum Demonstrated Condition to Induce Apoptosis ([3]; 0.4 μM): 3.0 kJ/m^2
C × F Ld90, Minimum Demonstrated Condition to Induce Apoptosis ([3]; 0.4 μM): 1.2 kJ/m^2

CN(C)CCC[Si](C)(C)O[Si]1(O[Si](C)(C)CCCN(C)C)n2c3c4ccccc4c2N=C2N=C(N=c4c5ccccc5c(n41)=NC1=NC(=N3)c3ccccc31)c1ccccc12 [Compound XII, SiPc[OSi(CH3)2(CH2)3N(CH3)2]2]
LD 90 (light dosage that kills 90% of cells) [1, 4]: 3.3 kj/m^2
Ld50 (fluence that reduces cell survival to 50%) [2]: 1.11 kJ/m^2
Ld90 (fluence that reduces cell survival to 10%) [2]: 1.70 kJ/m^2
normalized plating efficiency, AVG. ([2]; light dose 0 kJ/m^2): 100
normalized plating efficiency, AVG. ([2]; light dose 1 kJ/m^2): 82.2
normalized plating efficiency, AVG. ([2]; light dose 2 kJ/m^2): 5.23
normalized plating efficiency, AVG. ([2]; light dose 2.5 kJ/m^2): 0.90
normalized plating efficiency, AVG. ([2]; light dose 3 kJ/m^2): 0.15
normalized plating efficiency, AVG. ([2]; light dose 4 kJ/m^2): 0.014
normalized plating efficiency, AVG. ([2]; light dose 5 kJ/m^2): 0.0027
Fluence, Minimum Demonstrated Condition to Induce Apoptosis ([3]; 0.4 μM): 3.0 kJ/m^2
C × F Ld90, Minimum Demonstrated Condition to Induce Apoptosis ([3]; 0.4 μM): 1.2 kJ/m^2

CCN(CCC[Si](C)(C)O[Si]1(O[Si](C)(C)CCCN(CC)CCN(C)C)n2c3c4ccccc4c2N=C2N=C(N=c4c5ccccc5c(n41)=NC1=NC(=N3)c3ccccc31)c1ccccc12)CCN(C)C [Compound XVIII, SiPc[OSi(CH3)2(CH2)3N(CH2CH3)(CH2)2N(CH3)2]2]
LD 90 (light dosage that kills 90% of cells) ([1]; 1 μM): 7 kj/m^2
Ld50 (fluence that reduces cell survival to 50%) [2]: 5.00 kJ/m^2
Ld90 (fluence that reduces cell survival to 10%) [2]: 7.81 kJ/m^2
activity relative to PcXII [2]: 22%
normalized plating efficiency, AVG. ([2]; light dose 0 kJ/m^2): 100
normalized plating efficiency, AVG. ([2]; light dose 2 kJ/m^2): 81.8
normalized plating efficiency, AVG. ([2]; light dose 3 kJ/m^2): 73.6
normalized plating efficiency, AVG. ([2]; light dose 4 kJ/m^2): 64.0
normalized plating efficiency, AVG. ([2]; light dose 5 kJ/m^2): 52.1
normalized plating efficiency, AVG. ([2]; light dose 6 kJ/m^2): 33.8
normalized plating efficiency, AVG. ([2]; light dose 8 kJ/m^2): 9.13
normalized plating efficiency, AVG. ([2]; light dose 10 kJ/m^2): 3.0
Fluence, Minimum Demonstrated Condition to Induce Apoptosis ([3]; 0.5 μM): 10.0 kJ/m^2
C × F Ld90, Minimum Demonstrated Condition to Induce Apoptosis ([3]; 0.5 μM): 5.0 kJ/m^2
Fluence, Minimum Demonstrated Condition to Induce Apoptosis ([3]; 1.0 μM): 3.0 kJ/m^2
C × F Ld90, Minimum Demonstrated Condition to Induce Apoptosis ([3]; 1.0 μM): 3.0 kJ/m^2
